The values that follow are results of earlier work, collected in patent US20140323444A1, “ANTI-INFLAMMATORY AND ANTIDIABETIC AGENTS” (priority 2013, published 2014).

The conditions of series [1]: compared with placebo; in contrast to aspirin.
In the next series the test system is prostaglandin synthesis. The settings on record: in vivo; compared with aspirin and indomethacin.
The subject of another series is platelet aggregation. The settings on record: unlike aspirin.
In series [2] the test system is patients with type 2 diabetes.

Consider `O=C(Oc1ccccc1C(=O)O)c1ccccc1O` [salsalate, 2-(2-hydroxybenzoyl)oxybenzoic acid], for which the “fecal gastrointestinal blood loss” value in series [1] was “no greater fecal gastrointestinal blood loss than placebo”. In the series with prostaglandin synthesis, the anti-inflammatory activity entry is “equivalent to aspirin and indomethacin”. The “inhibition of platelet aggregation” value in the series on platelet aggregation was “does not inhibit platelet aggregation”. Moreover, in series [2] (in vivo), the adiponectin concentrations entry is on record as “increase adiponectin concentrations”, the circulating insulin entry is recorded as “increase circulating insulin” and the glucose utilization entry is listed as “improve glucose utilization”. In addition, in series [2] (patients with type 2 diabetes), the C-reactive protein result is “lowers”, the HbA1c levels entry is given as “lowers”, the blood glucose result is listed as “lowers” and the free fatty acid result is “lowers”. The triglycerides entry in series [2] (patients with type 2 diabetes) is “lowers”.
